Values after ≈ are worked out from the molar mass of the structure shown.
Tests used:
[1] = Equilibrium solubility study of polymorphs in different vehicles; assay type: physicochemical; conditions: 37±2 °C, suspension ~10 mg/mL; for Equilibrium solubility: 24 h, 1440 min, in mg/mL (unit assumed)
Procedure: The equilibrium solubility of the crystal forms A, B, C, and D of compound (IE) was tested in water (H2O), fasted state simulated gastric fluid (FaSSGF), fasted state simulated intestinal fluid (FaSSIF), and fed state simulated intestinal fluid (FeSSIF). In the test, the solids were suspended in corresponding buffers to formulate suspensions (~10 mg/mL) and mixed at 37±2 °C. After 24 h, samples of the suspensions were taken. The supernatant was filtered, and the concentration was determined.

[2] = Solid-state stability study of polymorphs; assay type: physicochemical; conditions: for Initial purity (%): HPLC purity before storage
[3] = test system: Human ovarian cancer OVCAR-3 cells; assay: In vivo efficacy study against OVCAR-3 tumors (subcutaneous tumor-bearing model); design: species or system BALB/c nude mice; conditions: 80mg/kg, PO, QD×28
Procedure: Human ovarian cancer OVCAR-3 cells were subcultured and expanded in an RPMI-1640 culture medium containing 20% FBS and 0.01 mg/mL bovine insulin. BALB/c nude mice aged 6-8 weeks were taken and each subcutaneously injected with 5 × 10^6 cells to establish a tumor-bearing model. The tumor volume was monitored, and when the tumor volume reached about 150 mm^3, the animals were randomized into 5 groups according to body weight and tumor volume. The animals were given, by oral gavage, the vehicle or compounds to be tested (ZN-c3 and IE) once daily for a total of 28 days. During the period of administration, the tumor volume and the animal body weight were measured twice a week, and the animals' states were observed daily. At the endpoint, the animals were euthanized with carbon dioxide, and the subcutaneous tumors were isolated and weighed.
The data calculation formulae are shown below: The tumor volume (TV) was calculated using the formula 1/2×axb^2, where a and b represent the length and width measurements of the tumor, respectively.
The tumor growth inhibition rate (%TGITV) was calculated using the formula (1 - TVT/TVC) × 100%, where TVc represents the average tumor volume of the negative control group, and TVT represents the average tumor volume of the treatment group.
The relative tumor volume (RTV) was calculated using the formula Vt/V0, where V0 represents the tumor volume at the time of grouping, and Vt represents the tumor volume at each measurement.

[4] = 25 °C/60% RH, 7 days (long-term)
[5] = 40 °C/75% RH, 7 days (accelerated)
[6] = 60 °C, 7 days (high-temperature, RH < 30%)
[7] = high-temperature and accelerated conditions for 7 days
[8] = long-term conditions for 7 days

| Equilibrium solubility ([1]; FaSSIF) | Equilibrium solubility ([1]; FeSSIF) | solubility thermodynamic at 24 h ([1]; fassgf) | Crystal form [2, 4] | Purity (%) [2, 4] | Crystal form [2, 5] | Purity (%) [2, 5] | Crystal form [2, 6] | Purity (%) [2, 6] | Initial purity (%) [2] | solid-state stability (in words) [2, 7] | solid-state stability (in words) [2, 8] | Equilibrium solubility ([1]; FaSSGF) | SMILES | Relative tumor inhibition (%) Day 28 [3] | Relative tumor volume Day 28 [3] |
| --- | --- | --- | --- | --- | --- | --- | --- | --- | --- | --- | --- | --- | --- | --- | --- |
| 1.73 | 0.27 | – | Crystal form A | 98.01% | Crystal form E | 98.11% | Crystal forms A+E | 98.06% | 98.08% | – | remained stable | >10 | Cc1cc(Nc2ncc3c(=O)n4n(c3n2)-c2cccc(n2)[C@](C)(O)CC/C=C\C4)ccc1OC1CCN(C)CC1 [Crystal form A of compound IE] | – | – |
| 0.710 | 1.299 | – | Crystal form C | 98.75% | Crystal form C | 98.73% | Crystal form C | 98.72% | 98.74% | remained stable | remained stable | >10 | Cc1cc(Nc2ncc3c(=O)n4n(c3n2)-c2cccc(n2)[C@](C)(O)CC/C=C\C4)ccc1OC1CCN(C)CC1 [Crystal form C of compound IE] | – | – |
| 1.23 | 2.07 | – | Crystal form B | 98.01% | Crystal form B | 98.25% | Crystal form B | 98.24% | 97.97% | remained stable | remained stable | >10 | Cc1cc(Nc2ncc3c(=O)n4n(c3n2)-c2cccc(n2)[C@](C)(O)CC/C=C\C4)ccc1OC1CCN(C)CC1 [Crystal form B of compound IE] | – | – |

Continued, molecule first:

| SMILES | Equilibrium solubility ([1]; FaSSIF) | Equilibrium solubility ([1]; FeSSIF) | solubility thermodynamic at 24 h ([1]; fassgf) | Crystal form [2, 4] | Purity (%) [2, 4] | Crystal form [2, 5] | Purity (%) [2, 5] | Crystal form [2, 6] | Purity (%) [2, 6] | Initial purity (%) [2] | solid-state stability (in words) [2, 7] | solid-state stability (in words) [2, 8] | Equilibrium solubility ([1]; FaSSGF) | Relative tumor inhibition (%) Day 28 [3] | Relative tumor volume Day 28 [3] |
| --- | --- | --- | --- | --- | --- | --- | --- | --- | --- | --- | --- | --- | --- | --- | --- |
| Cc1cc(Nc2ncc3c(=O)n4n(c3n2)-c2cccc(n2)[C@](C)(O)CC/C=C\C4)ccc1OC1CCN(C)CC1 [Crystal form D of compound IE] | 0.81 | 0.11 | 8440 µg/mL (≈ 15.6 mM) | Crystal form D | 97.82% | Crystal form D | 97.87% | Crystal form D | 97.74% | 97.79% | remained stable | remained stable | – | – | – |
| C=CCn1c(=O)c2cnc(Nc3ccc(N4CCN(C)CC4)cc3)nc2n1-c1cccc(C(C)(C)O)n1 [AZD-1775, reference compound] | – | – | – | – | – | – | – | – | – | – | – | – | – | 58.28% | 2.18 |
